Assays:
Format in all cases: biochemical
Human recombinant MMP-13 = molecular target: T1, Human recombinant MMP-13 (Homo sapiens, UniProt P45452); experiment: In vitro MMP inhibition, IC50 determination (fluorogenic substrate I)
T1 construct: made in house; host or cells: baculovirus / insect cells
Outline: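 Fluorescence at 415 nm (excitation 328 nm) reports Gly-Leu cleavage of 4 μM quenched methoxycoumarin peptide substrate I. Human recombinant MMP-13, activated by trypsin or APMA, was incubated at room temperature with varied inhibitor concentrations in pH 7.5 Tris/NaCl/CaCl2 buffer; IC50 derived from reduced fluorescence.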

Human recombinant MMP-14 = molecular target: T2, Human recombinant MMP-14 (Homo sapiens, UniProt P50281); experiment: as above
T2 construct: The catalytic domain enzyme was expressed in E. coli inclusion bodies, solubilized in urea; made in house
Outline: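 IC50 came from reduced fluorescence (ex 328 nm, em 415 nm) as inhibitor concentration rose, with 4 μM substrate I cleaved at Gly-Leu. Room-temperature incubation in pH 7.5 Tris buffer with 10 mM CaCl2; the E. coli-expressed, refolded MMP-14 catalytic domain was activated with trypsin or APMA.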

Human recombinant MMP-9 = molecular target: T3, Human recombinant MMP-9 (Homo sapiens, UniProt P14780); experiment: In vitro MMP inhibition, Ki determination (fluorogenic substrate II)
T3 construct: made in house; host or cells: MMP-9-transfected HT1080 cells (spent media)
T3 sequence (P14780 107-707 limits assumed): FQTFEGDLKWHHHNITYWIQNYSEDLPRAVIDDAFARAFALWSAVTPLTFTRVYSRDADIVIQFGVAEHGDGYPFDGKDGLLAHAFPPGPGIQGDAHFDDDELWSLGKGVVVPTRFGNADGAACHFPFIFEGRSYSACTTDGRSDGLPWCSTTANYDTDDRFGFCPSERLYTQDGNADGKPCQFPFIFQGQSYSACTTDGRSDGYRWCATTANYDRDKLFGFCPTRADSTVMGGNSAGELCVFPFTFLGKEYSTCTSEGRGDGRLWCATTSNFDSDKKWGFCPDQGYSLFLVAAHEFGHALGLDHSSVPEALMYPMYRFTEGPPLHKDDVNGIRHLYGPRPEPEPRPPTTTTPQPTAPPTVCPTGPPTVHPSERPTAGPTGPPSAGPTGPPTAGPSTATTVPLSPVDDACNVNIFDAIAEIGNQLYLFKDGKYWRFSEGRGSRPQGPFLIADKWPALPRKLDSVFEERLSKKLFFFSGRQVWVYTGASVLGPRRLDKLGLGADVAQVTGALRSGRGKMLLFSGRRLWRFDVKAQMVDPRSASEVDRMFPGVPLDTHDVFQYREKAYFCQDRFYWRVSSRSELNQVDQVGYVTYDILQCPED
Experimental: Several hydroxamates and salts thereof were analyzed in in vitro assays to determine their ability to inhibit the MMP cleavage of peptide substrates. Inhibition (Ki) and IC50 constants were calculated from the assayed hydroxamate-MMP interactions.
Human recombinant MMP-1, MMP-2, MMP-9, MMP-13, and MMP-14 were used in this assay. All enzymes were prepared in Assignee's laboratories following usual laboratory procedures. Protocols for the preparation and use of these enzymes are available in the scientific literature. See, e.g., Enzyme Nomenclature (Academic Press, San Diego, Calif., 1992) (and the citations therein). See also, Frije et al., J. Biol. Chem., 26(24), 16766-73 (1994).
The MMP-9 proenzyme was purified by gelatin Sepharose chromatography from spent media of MMP-9-transfected HT1080 cells provided by Dr. Howard Welgus of Washington University (St. Louis, Mo.).
All MMPs were activated using 4-aminophenylmercuric acetate (“APMA”, Sigma Chemical, St. Louis, Mo.) or trypsin. MMP-9 also was activated using human recombinant MMP-3 (purified in Assignee's laboratory following standard cloning and purification techniques).
Two fluorogenic, methoxycoumarin-containing polypeptide substrates were used in the MMP inhibition assays:
MCA-ArgProLeuGlyLeuDpaAlaArgGluArgNH2 (II)
Here, “Dpa” is 3-(2,4-dinitrophenyl)-L-2,3-diaminopropionyl group, and “MCA” is 7-methoxycoumarin-4-yl acetyl. Substrate (I) was purchased from Baychem (Redwood City, Calif.), and substrate II was prepared Assignee's laboratory. Substrate I was used in the IC50 determination assays, while substrate II was used in the Ki determination assays. In the absence of MMP inhibitory activity, either substrate is cleaved at the Gly-Leu peptide bond. This cleavage separates the highly fluorogenic peptide from the 2,4-dinitrophenyl quencher, thus resulting in increase of fluorescent intensity.
The stock solutions of the assayed hydroxamates (or salts thereof) were prepared in 1% dimethyl sulfoxide (DMSO). These stock solutions were diluted in Buffer A (100 mM Tris-HCl, 100 mM NaCl, 10 mM CaCl2, 0.05% polyoxyethylene 23 lauryl ether, pH 7.5) to obtain solutions with different hydroxamate concentrations, i.e., assay solutions with different concentrations of the assayed MMP inhibitory compound. The experiment controls contained the same amount of Buffer A/DMSO as the assayed sample, but contained no hydroxamate (or salt thereof).
The assays from which the Ki determinations were made were performed as follows. The assayed hydroxamate samples were incubated in separate wells of untreated white polystyrene plates (Nunc Nalgene International, Rochester, N.Y.), and analyzed on a Tecan SpectraFlour Plus plate reader. The excitation wavelength was 330 nm, and the emission wavelength—420 nm. All samples (assayed hydroxamates and controls) were incubated in separate plate wells at room temperature for 1 hr in the presence of 4 μM of MMP substrate (II). In the absence of MMP inhibitory activity, substrate II was cleaved at the Gly-Leu bond resulting in an increase of relative fluorescence. Inhibition was observed as a reduced rate of this increase in relative fluorescence. The various hydroxamates were analyzed using a single low enzyme concentration with a single substrate concentration fixed at or below the Km. This protocol is a modification of method by Knight et al., FEBS Lett., 296(3), 263-266 (1992). Apparent inhibitory constants were determined by non-linear regression of reaction velocity as a function of inhibitor and enzyme concentration using Morrison's equation, as described by Kuzmic, Anal. Biochem. 286, 45-50 (2000). Modifications were made in the non-linear regression method to allow a common control reaction rate and effective enzyme concentration to be shared between all dose-response relationships on a given assay plate. […]

SMILES | IC50 (Human recombinant MMP-13; value outside parenthesis) [nM] | IC50 (Human recombinant MMP-14; value outside parenthesis) [nM] | Ki (Human recombinant MMP-9; value in parenthesis) [nM] | IC50 (Human recombinant MMP-13; value outside parentheses) [nM] | IC50 (Human recombinant MMP-14; value outside parentheses) [nM] | Ki (Human recombinant MMP-9; value in parentheses) [nM]
O=C(NO)C1(S(=O)(=O)c2ccc(OCCCc3cccc(-c4cccc(F)c4)c3)cc2)CCOCC1 [Example 161] | 2.6 | > 10000 | 1730 | – | – | –
COCCN1CCC(C(=O)NO)(S(=O)(=O)c2ccc(OCCCc3nc(-c4ccc(OC(F)(F)F)cc4)no3)cc2)CC1 [Example 190] | 0.5 | > 10000 | 669 | – | – | –
O=C(NO)C1(S(=O)(=O)c2ccc(OCCCc3cccc(-c4ccccc4F)c3)cc2)CCOCC1 [Example 163] | 2.5 | > 10000 | 2500 | – | – | –
O=C(NO)C1(S(=O)(=O)c2ccc(OCCOc3cccc(-c4ccccc4)c3)cc2)CCOCC1 [Example 157] | 3.5 | > 10000 | 1390 | – | – | –
CC(C)C(=O)c1cccc(CCCOc2ccc(S(=O)(=O)C3(C(=O)NO)CCOCC3)cc2)c1 [Example 95] | 2.7 | > 10000 | 788 | – | – | –

The remaining lines, values ahead:

IC50 (Human recombinant MMP-13; value outside parenthesis) [nM] | IC50 (Human recombinant MMP-14; value outside parenthesis) [nM] | Ki (Human recombinant MMP-9; value in parenthesis) [nM] | IC50 (Human recombinant MMP-13; value outside parentheses) [nM] | IC50 (Human recombinant MMP-14; value outside parentheses) [nM] | Ki (Human recombinant MMP-9; value in parentheses) [nM] | SMILES
– | – | – | 0.1 | 57 | 11.3 | O=C(NCCOc1ccc(S(=O)(=O)C2(C(=O)NO)CCOCC2)cc1)c1cc2ccccc2[nH]1 [Example 599]
0.1 | > 10000 | 509 | – | – | – | COc1ccc(/C(C#N)=C/CCCOc2ccc(S(=O)(=O)C3(C(=O)NO)CCN(C4CC4)CC3)cc2)cc1 [Example 233]
– | – | – | 6.6 | > 10000 | 1370 | O=C(NO)C1(S(=O)(=O)c2ccc(OCCCc3cc(-c4ccc(OC(F)(F)F)cc4)cs3)cc2)CCOCC1 [Example 608]
0.3 | 7630 | 12.5 | – | – | – | O=C(CCCOc1ccc(S(=O)(=O)C2(C(=O)NO)CCOCC2)cc1)Nc1ccc(OC(F)(F)F)cc1 [Example 250]
1.1 | > 10000 | > 10000 | – | – | – | Cc1cc(NC(=O)CCCOc2ccc(S(=O)(=O)C3(C(=O)NO)CCOCC3)cc2)ccc1OC(C)C [Example 290]

Source: patent publication US20040024024A1, “Aromatic sulfone hydroxamates and their use as protease inhibitors” (priority 2001, published 2004)
